From the supplement of paper PMC10307832

Assays:
Test in all cases: relative viability (nuclei count vs DMSO), 5 days (fraction); higher = more cells survive
XMD13-2 + Lapatinib = compound: C1CC1C(=O)NC2=NNC3=C2C=CC(=C3)C4=CC(=CC=C4)C(=O)NC5CC5 [XMD13-2] + CS(=O)(=O)CCNCc1ccc(-c2ccc3ncnc(Nc4ccc(OCc5cccc(F)c5)c(Cl)c4)c3c2)o1 [Lapatinib] (partner 2 µM)
Method in brief: (§1)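 Lung cancer cell lines were pin-tool dosed in 1536-well plates on the day after seeding, with either a lone drug or a fixed anchor-drug dose plus five library-drug doses (not always all listed) in √10 steps. Nuclei were counted on 4× images after 5 days. Relative viability is the ratio of treated-well to vehicle-well nuclei counts, with each value a median of duplicate plates.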

Dasatinib + Phenformin = compound: Cc1nc(Nc2ncc(C(=O)Nc3c(C)cccc3Cl)s2)cc(N2CCN(CCO)CC2)n1 [Dasatinib] + N=C(N)NC(=N)NCCc1ccccc1 [Phenformin] (partner 250 µM)
Method in brief: as §1

XMD13-2 + Olaparib = compound: C1CC1C(=O)NC2=NNC3=C2C=CC(=C3)C4=CC(=CC=C4)C(=O)NC5CC5 [XMD13-2] + O=C(c1cc(Cc2n[nH]c(=O)c3ccccc23)ccc1F)N1CCN(C(=O)C2CC2)CC1 [Olaparib] (partner 8 µM)
Method in brief: as §1

ALW-II-49-7 + Lapatinib = compound: Cc1ccc(C(=O)Nc2cccc(C(F)(F)F)c2)cc1Nc1cncc(C(N)=O)c1 [ALW-II-49-7] + CS(=O)(=O)CCNCc1ccc(-c2ccc3ncnc(Nc4ccc(OCc5cccc(F)c5)c(Cl)c4)c3c2)o1 [Lapatinib] (partner 2 µM)
Method in brief: as §1

| Cell Line | relative viability (XMD13-2 + Lapatinib; first compound 0.05 µM) | relative viability (XMD13-2 + Lapatinib; first compound 0.1581 µM) | relative viability (XMD13-2 + Lapatinib; first compound 0.5 µM) | relative viability (XMD13-2 + Lapatinib; first compound 1.581 µM) | relative viability (XMD13-2 + Lapatinib; first compound 5 µM) | relative viability (Dasatinib + Phenformin; first compound 0.005 µM) | relative viability (Dasatinib + Phenformin; first compound 0.01581 µM) | relative viability (Dasatinib + Phenformin; first compound 0.05 µM) | relative viability (Dasatinib + Phenformin; first compound 0.1581 µM) | relative viability (Dasatinib + Phenformin; first compound 0.5 µM) | relative viability (XMD13-2 + Olaparib; first compound 0.05 µM) | relative viability (XMD13-2 + Olaparib; first compound 0.1581 µM) | relative viability (XMD13-2 + Olaparib; first compound 0.5 µM) | relative viability (XMD13-2 + Olaparib; first compound 5 µM) | relative viability (ALW-II-49-7 + Lapatinib; first compound 0.08 µM) | relative viability (ALW-II-49-7 + Lapatinib; first compound 0.253 µM) | relative viability (ALW-II-49-7 + Lapatinib; first compound 0.8 µM) | relative viability (ALW-II-49-7 + Lapatinib; first compound 2.53 µM) | relative viability (ALW-II-49-7 + Lapatinib; first compound 8 µM) | relative viability (XMD13-2 + Olaparib; first compound 1.581 µM) |
| --- | --- | --- | --- | --- | --- | --- | --- | --- | --- | --- | --- | --- | --- | --- | --- | --- | --- | --- | --- | --- |
| NCI-H2405 | 1.18 | 1 | 0.95 | 0.957 | 1.09 | 0.363 | 0.301 | 0.258 | 0.153 | 0.137 | 0.931 | 0.874 | 0.931 | 0.843 | 1.01 | 1.24 | 0.972 | 0.938 | 0.89 |  |
| Calu-6 | 1.18 | 0.93 | 1.11 | 0.983 | 0.736 |  |  |  |  |  | 0.615 | 0.586 |  | 0.512 | 0.896 | 1.08 | 1.02 | 1.59 | 1.02 | 0.605 |
| 201T | 1.06 | 1.13 | 1.02 | 1.07 | 1.08 | 0.446 | 0.33 | 0.338 | 0.341 | 0.221 | 0.851 | 0.866 | 0.856 | 0.876 | 1.08 | 1.1 | 1.05 | 1.03 | 0.903 | 0.811 |
| CAL-12T | 0.627 |  | 0.795 | 0.537 | 0.46 | 0.574 | 0.554 | 0.411 | 0.273 | 0.174 | 0.694 | 0.799 | 0.708 | 0.697 | 0.641 |  |  | 0.568 | 0.697 | 0.695 |
| HCC-44 | 1.01 | 1.12 | 1.08 | 0.957 | 0.771 | 0.202 | 0.283 | 0.179 | 0.139 | 0.113 | 1.01 | 0.983 | 0.974 | 0.986 | 0.967 | 1.04 | 0.995 | 0.973 | 0.923 | 1.03 |
| NCI-H358 | 0.566 | 0.463 | 0.471 | 0.404 | 0.322 | 0.301 | 0.247 | 0.264 | 0.156 | 0.157 | 0.72 | 0.618 | 0.667 | 0.61 | 0.518 | 0.387 | 0.423 | 0.538 | 0.5 | 0.718 |
| SW 900 |  |  |  |  |  | 0.489 | 0.568 | 0.53 | 0.466 | 0.294 | 0.772 | 0.853 | 0.922 | 0.806 |  |  |  |  |  | 0.753 |
| NCI-H2087 | 1.06 | 1.48 | 1.01 | 1.23 | 0.737 | 0.517 | 0.461 | 0.562 | 0.343 | 0.161 | 0.643 | 0.607 | 0.691 | 0.567 | 0.976 | 1.07 | 0.839 | 1.15 | 1.01 | 0.562 |
| COR-L 105 | 0.395 | 0.319 | 0.426 | 0.346 | 0.27 | 0.441 | 0.378 | 0.312 | 0.278 | 0.16 | 0.606 | 0.678 | 0.656 | 0.759 | 0.318 | 0.372 | 0.335 | 0.359 | 0.416 | 0.564 |
